Measured values: ChEMBL document CHEMBL3751722, “Discovery of C-shaped aurone human neutrophil elastase inhibitors” (Medchemcomm, 2015)
Each block holds one compound with its values, some of them ahead of it.

Tests used:
[1] = Selectivity index, ratio of cytotoxic EC50 for HEK293 cells to IC50 for human neutrophil elastase
Neutrophil elastase = biological target: T1, Neutrophil elastase (Homo sapiens, UniProt P08246); test: Inhibition of human neutrophil elastase pre-incubated for 30 mins before MeO-Suc-Ala-Ala-Pro-Val-AMC substrate addition by fluorometric assay
T1 sequence (P08246 whole entry): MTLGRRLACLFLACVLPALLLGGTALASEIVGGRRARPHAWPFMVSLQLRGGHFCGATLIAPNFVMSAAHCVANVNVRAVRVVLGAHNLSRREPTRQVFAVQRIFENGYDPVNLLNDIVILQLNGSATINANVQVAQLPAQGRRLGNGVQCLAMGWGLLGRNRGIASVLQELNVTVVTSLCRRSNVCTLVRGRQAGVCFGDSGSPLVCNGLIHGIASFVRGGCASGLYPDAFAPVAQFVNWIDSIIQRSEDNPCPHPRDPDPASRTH

HEK293 = test: Cytotoxicity against HEK293 cells; conditions: Homo sapiens

IC50 (Neutrophil elastase): 2.9 µM
SMILES: CN(C)c1ccc(/C=C2\Oc3ccccc3C2=O)cc1
Selectivity Index [1]: >20
EC50 (HEK293): > 100 µM

IC50 (Neutrophil elastase): 5.1 µM
SMILES: CN(C)c1ccc(/C=C2\Oc3cc(O)ccc3C2=O)cc1
Selectivity Index [1]: >20
EC50 (HEK293): > 100 µM

SMILES: O=C1/C(=C/c2ccc(Br)cc2)Oc2ccccc21
EC50 (HEK293): > 100 µM

IC50 (Neutrophil elastase): > 10 µM
SMILES: O=C1/C(=C/c2cccc(Br)c2)Oc2ccccc21
Selectivity Index [1]: >20
EC50 (HEK293): > 100 µM

SMILES: O=C1/C(=C/c2ccccc2Br)Oc2ccccc21
EC50 (HEK293): > 100 µM

SMILES: O=C1/C(=C/c2ccc(-c3ccccc3)cc2)Oc2ccccc21
EC50 (HEK293): > 100 µM

SMILES: O=C1/C(=C/c2ccc(-c3ccc(F)cc3)cc2)Oc2ccccc21
EC50 (HEK293): > 100 µM

SMILES: O=C1/C(=C/c2ccc(-c3ccc(Cl)cc3)cc2)Oc2ccccc21
EC50 (HEK293): > 100 µM

SMILES: O=Cc1ccc(-c2ccc(/C=C3\Oc4ccccc4C3=O)cc2)cc1
EC50 (HEK293): > 100 µM

SMILES: O=C1/C(=C/c2ccc(Cc3ccccc3)cc2)Oc2ccccc21
EC50 (HEK293): > 100 µM

SMILES: O=C1/C(=C/c2ccc(-c3cnc4ccccc4c3)cc2)Oc2ccccc21
EC50 (HEK293): > 100 µM

SMILES: Nc1ccc(-c2ccc(/C=C3\Oc4ccccc4C3=O)cc2)cn1
EC50 (HEK293): > 100 µM

SMILES: O=C1/C(=C/c2ccc(Nc3ccccc3)cc2)Oc2ccccc21
EC50 (HEK293): > 100 µM

SMILES: O=C1/C(=C/c2ccc(NCc3ccccc3)cc2)Oc2ccccc21
EC50 (HEK293): > 100 µM

IC50 (Neutrophil elastase): > 10 µM
SMILES: Cc1ccc(Oc2ccc(/C=C3\Oc4ccccc4C3=O)cc2)cc1
Selectivity Index [1]: >20
EC50 (HEK293): > 100 µM

SMILES: O=C1/C(=C/c2ccc(Oc3ccc(Cl)cc3)cc2)Oc2ccccc21
EC50 (HEK293): > 100 µM

SMILES: O=C1/C(=C/c2cccc(-c3ccccc3)c2)Oc2ccccc21
EC50 (HEK293): > 100 µM

SMILES: O=C1/C(=C/c2cccc(-c3ccc(Cl)cc3)c2)Oc2ccccc21
EC50 (HEK293): > 100 µM

SMILES: O=Cc1ccc(-c2cccc(/C=C3\Oc4ccccc4C3=O)c2)cc1
EC50 (HEK293): > 100 µM

SMILES: O=C1/C(=C/c2cccc(Cc3ccccc3)c2)Oc2ccccc21
EC50 (HEK293): > 100 µM

SMILES: COc1cccc2c1O/C(=C\c1ccccc1)C2=O
EC50 (HEK293): > 100 µM

SMILES: Cc1ccc(Oc2ccc(/C=C3\Oc4cc(O)ccc4C3=O)cc2)cc1
EC50 (HEK293): > 100 µM

SMILES: O=C1/C(=C/c2ccc(Oc3ccc(Cl)cc3)cc2)Oc2cc(O)ccc21
EC50 (HEK293): > 100 µM

SMILES: O=C1/C(=C/c2cccc(-c3cnc4ccccc4c3)c2)Oc2ccccc21
EC50 (HEK293): > 100 µM

SMILES: O=C1/C(=C/c2ccccc2)Oc2cc(O)ccc21
EC50 (HEK293): > 100 µM
